# Where two headings read alike, the source gives them in different places. Square brackets hold non-standard residues; d marks the D form. Ends that are not written are not given here. Peptide text beside a SMILES is read from it. AEEA = NCCOCCOCC(=O)O
# How the values were obtained:
# [1] = test system: human corneal epithelial cell (HCEC); assay: HCEC chemotaxis, modified Boyden chemotaxis chamber assay; format: cell-based; conditions: for HCEC migration versus buffer control: 120-146QH 10^−4 to 10^−10 M, 120-146QR 10^−6 and 10^−8 M, HB-EGF 50 ng/ml, rCAP37 250 ng/ml, 3 hours
# Method: The effect of buffer control (0.1% BSA in Gey's buffer), heparin binding-epidermal growth factor (HB-EGF, 50 ng/ml), recombinant CAP37 (rCAP37, 250 ng/ml), 120-146QH ([…], 10^−10M, 10^−8M, 10^−4M, and 10^−4M,) and 120-146QR (10^−10M, 10^−8M, 10^−6M, and 10^−4M) on HCEC chemotaxis was determined by the modified Boyden chemotaxis chamber method. HCEC chemotaxis was measured in response to HB-EGF, rCAP37, and peptides 120-146QH (SEQ ID NO: 29) and 120-146QR (SEQ ID NO: 28) after incubation for 3 hours at 37° C. Chemotaxis is expressed as a percent migration. The buffer control (no chemoattractant) is arbitrarily assigned the value of 100% migration. Data are expressed as means±SEM and are calculated from 6 observations for each test point. **P<0.01 by Wilcoxon signed-rank test as compared to controls.
# Chemotaxis assays were performed using the modified Boyden chemotaxis chamber assay. Peptide 120-146QH was used at 10^−4M, 10^−6M, 10^−8 M, 10^−10 M, and 10^−12M, and peptide 120-146QR was used at 10^−4M, 10^−6M, 10^−8 M, and 10^−10 M.
# [2] = test system: mouse cornea (corneal epithelial abrasion); assay: In vivo model of corneal wound healing; conditions: treated at 0 and 16 hours; 95-122 10^−5 M; 120-146WH 10^−8 M or 10^−6 M; HB-EGF 250 ng/ml
# Method: The in vivo model of wound healing was carried out using a disposable biopsy punch (2 mm, Miltex, York, Pa.) to demarcate the mouse cornea and a 0.5 mm burr using the AlgerBrush II (The Alger Company, Inc., Lago Vista, Tex.) to remove the corneal epithelium.
# Mice were anesthetized using ketamine (100 mg/kg; Bionichepharma, LLC., St. Lake Forrest, Ill.) and xylazine ([…]; Rompun; Bayer Corp., Shawnee Mission, Kans.), and the right cornea was wounded as follows. A disposable biopsy punch (2 mm, Miltex, York, Pa.) was used to demarcate the mouse cornea. The corneal epithelium was carefully removed within the 2 mm demarcated area with a 0.5 mm burr using the AlgerBrush II (The Alger Company, Inc., Lago Vista, Tex.). The corneal abrasions were treated at 0 and 16 hours with HB-EGF (250 ng/ml), rCAP37 (250 ng/ml), or vehicle control (0.9% sodium chloride, pH 5.5, Baxter, Deerfield, Ill.). Corneal abrasions were visualized using sterile fluorescein sodium ophthalmic strips USP (FLUORETS®, Chauvin Laboratory, Aubenas, France) dampened with sterile PBS. Images were taken at 0, 16, 24, and 48 hours immediately following fluorescein staining using a surgical microscope equipped with a camera (Carl Zeiss OPMI VISU 140, Carl Zeiss Surgical, Inc., Oberkochen, Germany). The areas of the open wound were quantitated using ImageJ software (US National Institutes of Health), and the results were reported as the percentage of wound closure.
# Whole mouse eyes were collected for histology at 0, 6, 16, 24, and 48 hours post wounding and were immediately placed in Prefer fixative (Anatech LTD., Battle Creek, Mich.) for 20 minutes before being transferred to 70% ethanol. Tissues were paraffin-embedded and cut at a thickness of 5 μm, mounted on SUPERFROSTPLUS® slides (Statlab Medical Products, Lewisville, Tex.), and subsequently deparaffinized, rehydrated, and washed in deionized water. Sections were stained with hematoxylin (Leica Microsystems, Buffalo Grove, Ill.) and rinsed twice in deionized water before being washed in Blue Buffer (Leica Microsystems). The sections were finally washed in deionized water and 95% ethanol prior to being counterstained with eosin (Leica Microsystems). Sections were dehydrated in ethanol and cleared in xylene.
# [3] = test system: Acinetobacter baumannii ATCC® BAA-747™; format: cell-based; conditions: 25 μM
# Method: (§1) In vitro bactericidal activity: The three peptide compounds BCC01-5RMP (SEQ ID NO: 21), BCC02-5RMP (SEQ ID NO: 22), and BCC03-5RMP (SEQ ID NO: 23) were assayed for in vitro bactericidal activity against Pseudomonas aeruginosa, Escherichia coli, Salmonella typhimurium, and Acinetobacter baumannii. The starting inoculum for all experiments was 1×10^6 colony forming units (CFU)/ml. The CFU remaining at the end of 60 to 180 minute incubation was determined, and the data plotted as a log reduction in CFU/ml.
# (§2) For FIGS. 10-13, in vitro bactericidal assays were performed using a starting inoculum of 1×10^6 CFU/ml of the bacterial suspension. The CFU remaining at the end of the 60-180 minute incubation was determined, and the data was plotted as log reduction in CFU/ml.
# (§3) In particular, each of the test peptides (CAP37 peptides 120-146WR, 120-146WH, and 95-122 (SEQ ID NOs: 30, 31, and 26, respectively)) was used at 25, 12.5, 6.25, and 3.12 μM. Gentamicin was used at 4 μg/ml. 1×10^6/ml Acinetobacter baumannii ATCC® BAA-747™ or Pseudomonas aeruginosa ATCC® 27853™ (American Type Culture Collection, Manassas, Va.) were incubated with the peptides, negative buffer control (tryptone saline), and positive control gentamicin at pH 5.5 or 7.2. A 60 minute incubation was used for Acinetobacter baumannii ATCC® BAA-747™, while a 180 minute incubation was used for Pseudomonas aeruginosa ATCC® 27853™. 50 μl aliquots were plated out on agar plates and incubated overnight. Colony forming units were counted after overnight incubation and CFU/ml calculated.
# swine skin wounds [4] = assay: Swine full thickness excisional dermal wound model, wound area; format: in vivo
# Method: In this Example, peptide compounds of the presently disclosed and claimed inventive concept(s) were evaluated as to their activity on the dermal wound healing process in a clinically relevant swine full thickness excisional wound model. Three different peptide formulations (Group B, Peptide 95-122 (SEQ ID NO: 26); Group C, Peptide 120-146WH (SEQ ID NO: 31); and Group D, Peptide 120-146QH-5RMP (SEQ ID NO: 33)) were each evaluated at the same concentration (3 mg/ml). Sterile saline served as the control (Group A).
# (§4) Full thickness excisional wounds were induced on the dorsum of swine (N=3) using a 1.0 cm biopsy punch. Treatments were administered (0.20 ml) to each wound (N=6 wounds per group), and the wounds were dressed with standard occlusive dressing ([…]™, 3M Corporation, St. Paul, Minn.). Treatments were reapplied daily and dressings changed. Clinical wound healing observations and wound area (2 mm) measurements were performed on days 0, 3, 5, 7, 10, and 14 post-wounding. Wound area (2 mm) data were expressed as percentage (%) of wound healing. Animals were terminated on day 14 with wounds harvested and processed for histological evaluation. […] All peptide formulation treatment groups healed faster with greater rate of closure and re-epithelialization over time, as compared to the saline control (Group A).
# swine skin wounds [5] = assay: Swine dermal wound model, histological evaluation; format: in vivo; conditions: day 14 post-wounding
# Method: The characteristics that were measured are required to indicate features of a well-healed wound. Inflammation should be low and re-epithelialization high.
# as §4
# The histology correlated with the clinical observations. […] There were minimal differences in the amount or character of granulation tissue, inflammation, and angiogenesis. All the wounds were well filled and vascularized.
# [6] = test system: Pseudomonas aeruginosa ATCC® 27853™; format: cell-based; design: Effects of Peptide Compounds on Pseudomonas aeruginosa ATCC ® 27853 ™: unit not given here; conditions: for Effects of Peptide Compounds on Pseudomonas aeruginosa ATCC ® 27853 ™: Table 6
# Method: as §1, §2, §3
# For FIG. 14, 1×10^6/ml Pseudomonas aeruginosa ATCC® 27853™ were incubated with each of the test peptides (CAP37 peptides 120-146WR, 120-146WH, 120-146QR, 120-146QH, 120-146QR-5RMP, and 120-146QH-5RMP (SEQ ID NOs: 30, 31, 28, 29, 32, and 33, respectively)) at 150, 75, and 37.5 μg/ml, or negative buffer control (tryptone saline), for 180 minutes at pH 5.5. 50 μl aliquots were plated out on agar plates and incubated overnight. Colony forming units were counted after overnight incubation and CFU/ml calculated.
# [7] = test system: E. coli ATCC® strain 25922™; format: cell-based, Escherichia coli; design: unit not given here; conditions: Table 6
# Method: as §1
# [8] = 3 mg/ml, 0.20 ml per wound, reapplied daily
molecule,measurement,setting,value
GTRCQVAGWGSQRSGGRLSRFPRFVNV [Peptide 120-146QR],HCEC migration versus buffer control,[1],significantly increase migration
GTRCQVAGWGSWHSGGRLSRFPRFVNV [Peptide 120-146WH],corneal wound healing versus vehicle,[2],significantly greater
same,activity against A. baumannii at 25 μM,[3],highly active
same,Mean Wound Healing (%) Day 0,swine skin wounds [4]; [8],0.0%
same,Mean Wound Healing (%) Day 3,swine skin wounds [4]; [8],22.1%
same,Mean Wound Healing (%) Day 5,swine skin wounds [4]; [8],35.9%
same,Mean Wound Healing (%) Day 7,swine skin wounds [4]; [8],59.7%
same,Mean Wound Healing (%) Day 10,swine skin wounds [4]; [8],93.5%
same,Mean Wound Healing (%) Day 14,swine skin wounds [4]; [8],97.5%
same,dermal wound healing,"swine skin wounds [4]; topical 3 mg/ml over 14 days, vs saline",accelerate dermal wound healing
same,epidermal resurfacing and maturation of the epidermis versus saline control,swine skin wounds [5],greater extent of epidermal resurfacing and maturation of the epidermis
same,"Histopathology Results, Mean Angiogenesis",swine skin wounds [5]; 3 mg/ml,1.7
same,"Histopathology Results, Mean Epithelization",swine skin wounds [5]; 3 mg/ml,3.7
same,"Histopathology Results, Mean Granulation",swine skin wounds [5]; 3 mg/ml,4.0
same,"Histopathology Results, Mean Inflammation",swine skin wounds [5]; 3 mg/ml,0.5
same,"effectiveness against Pseudomonas aeruginosa compared with gentamicin, pH 7.2","[6]; peptide at 25 VIM (so in the source), gentamicin 4 μg/ml",as effective as the standard antibiotic gentamicin
RRRRNQGRHFCGGALIHARFVMTAASCFQR (5-arginine peptide derivative of CAP37 peptide) [SEQ ID NO: 18 (Linear)],Effects of Peptide Compounds on Escherichia coli ATCC ® 25922 ™,[7]; Peptide Conc 262.8 μg/ml,100.0
same,Effects of Peptide Compounds on Pseudomonas aeruginosa ATCC ® 27853 ™,[6]; Peptide Conc 87.6 μg/ml,100.0
CC[C@H](C)[C@H](NC(=O)[C@H](CC(C)C)NC(=O)[C@H](C)NC(=O)CNC(=O)CNC(=O)[C@H](CS)NC(=O)[C@H](Cc1ccccc1)NC(=O)[C@H](Cc1c[nH]cn1)NC(=O)[C@H](CCCNC(=N)N)NC(=O)CNC(=O)[C@H](CCC(N)=O)NC(=O)[C@H](CC(N)=O)NC(=O)COCCOCCNC(=O)COCCOCCN)C(=O)N[C@@H](Cc1c[nH]cn1)C(=O)N[C@@H](C)C(=O)N[C@@H](CCCNC(=N)N)C(=O)N[C@@H](Cc1ccccc1)C(=O)N[C@H](C(=O)N[C@@H](CCSC)C(=O)N[C@H](C(=O)N[C@@H](C)C(=O)N[C@@H](C)C(=O)N[C@@H](CO)C(=O)N[C@@H](CO)C(=O)N[C@@H](Cc1ccccc1)C(=O)N[C@@H](CCC(N)=O)C(=O)O)[C@@H](C)O)C(C)C [BCC03-MP] (H-[AEEA][AEEA]NQGRHFCGGALIHARFVMTAASSFQ-OH; N-terminus and C-terminus assumed),Effects of Peptide Compounds on Escherichia coli ATCC ® 25922 ™,[7]; Peptide Conc 6.25 μg/ml,6.4
same,Effects of Peptide Compounds on Escherichia coli ATCC ® 25922 ™,[7]; Peptide Conc 200 μg/ml,46.0
same,Effects of Peptide Compounds on Pseudomonas aeruginosa ATCC ® 27853 ™,[6]; Peptide Conc 12.5 μg/ml,−45.6
same,Effects of Peptide Compounds on Pseudomonas aeruginosa ATCC ® 27853 ™,[6]; Peptide Conc 50 μg/ml,−2.9
same,Effects of Peptide Compounds on Pseudomonas aeruginosa ATCC ® 27853 ™,[6]; Peptide Conc 100 μg/ml,44.0
GTRCQVAGWGSQHSGGRLSRFPRFVNV [Peptide 120-146QH],HCEC migration versus buffer control,[1],significantly increase migration
same,HCEC migration compared with whole CAP37 protein,[1]; 120-146QH at 10^−6 M and 10^−8 M,comparable
RRRRNQGRHFCGGALIHARFVMTAASCFQR (not fully specified; cysteine pairing not given here) [SEQ ID NO: 18 (Cyclized)],Effects of Peptide Compounds on Escherichia coli ATCC ® 25922 ™,[7]; Peptide Conc 25 μg/ml,38.0
same,Effects of Peptide Compounds on Escherichia coli ATCC ® 25922 ™,[7]; Peptide Conc 400 μg/ml,82.0
same,Effects of Peptide Compounds on Pseudomonas aeruginosa ATCC ® 27853 ™,[6]; Peptide Conc 3.125 μg/ml,100.0
same,Effects of Peptide Compounds on Pseudomonas aeruginosa ATCC ® 27853 ™,[6]; Peptide Conc 6.25 μg/ml,100.0
same,Effects of Peptide Compounds on Pseudomonas aeruginosa ATCC ® 27853 ™,[6]; Peptide Conc 12.5 μg/ml,100.0
same,Effects of Peptide Compounds on Pseudomonas aeruginosa ATCC ® 27853 ™,[6]; Peptide Conc 25 μg/ml,100.0
same,Effects of Peptide Compounds on Pseudomonas aeruginosa ATCC ® 27853 ™,[6]; Peptide Conc 50 μg/ml,100.0
same,Effects of Peptide Compounds on Pseudomonas aeruginosa ATCC ® 27853 ™,[6]; Peptide Conc 100 μg/ml,100.0
same,Effects of Peptide Compounds on Pseudomonas aeruginosa ATCC ® 27853 ™,[6]; Peptide Conc 200 μg/ml,100.0
same,Effects of Peptide Compounds on Pseudomonas aeruginosa ATCC ® 27853 ™,[6]; Peptide Conc 400 μg/ml,100.0

# Source: patent publication US9862748B2, “Peptide compounds and methods of production and use thereof” (priority 2012, dated 2018)
